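How tested: cells in 96-well plates exposed to compound for 48 hours at five concentrations. TGI: concentration producing complete growth inhibition.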
Legend:
Assay in all cases: inhibition of tumour cell growth, NCI panel, 48 h
[1] = tested on: NCI-H522 lung
[2] = tested on: SNB-75 CNS
[3] = tested on: HOP-92 NSCLC
[4] = tested on: TK-10 renal
[5] = tested on: RXF 393 renal
[6] = tested on: A498 renal
[7] = tested on: UO-31 renal
[8] = tested on: SF-268 CNS
[9] = tested on: ACHN renal
[10] = tested on: SK-MEL-5 melanoma
[11] = tested on: OVCAR-8 ovarian
[12] = tested on: HL-60(TB) leukemia
[13] = tested on: MCF7 breast
[14] = tested on: BT-549 breast
[15] = tested on: HS 578T breast

SMILES	TGI [1] [µM]	TGI [2] [µM]	TGI [3] [µM]	TGI [4] [µM]	TGI [5] [µM]	TGI [6] [µM]	TGI [7] [µM]	TGI [8] [µM]	TGI [9] [µM]	TGI [10] [µM]	TGI [11] [µM]	TGI [12] [µM]	TGI [13] [µM]	TGI [14] [µM]	TGI [15] [µM]
NC(CCC(=O)NC(CSC(=O)N(O)c1ccccc1)C(=O)NCC(=O)O)C(=O)O (configuration not stated)	> 1000	> 1000	> 1000	> 1000	> 1000	> 1000	> 1000	> 1000	> 1000	> 1000	> 1000	> 1000			
CN1CCCOC(c2ccc([N+](=O)[O-])cc2)O1 (configuration not stated)	> 100	> 100	> 100	> 100	> 100	> 100	> 100	> 100	> 100	> 100	> 100		> 100	> 100	
CN(C)CC1CCCC(CN(C)C)C1=NOC(=O)c1ccccc1 (configuration not stated)	> 100	> 100	> 100	> 100		> 100	> 100	> 100	> 100	> 100	> 100	> 100			
COCn1cnc2c(=O)n(-c3ccc(OC)cc3)c(=S)n(-c3ccc(OC)cc3)c21	> 100	> 100		> 100	> 100	> 100	> 100	> 100	> 100	> 100	> 100	> 100	> 100	> 100	
CC(O)c1ccc[n+](Cc2ccccc2)c1 (configuration not stated)	> 400		> 400	> 400	> 400			> 400	> 400	> 400	> 400	> 400			
CC(=O)N(C(C)=O)n1c(-c2ccccc2)n[nH]c1=O	> 100	> 100	> 100	> 100	> 100		> 100	> 100	> 100	> 100	> 100		> 100	> 100	
Cc1ccc(C2=C(C#N)C(=O)N3CCN=C3S2)cc1	> 100	> 100	> 100	> 100	> 100		> 100		> 100	> 100	> 100		> 100	> 100	
CSc1sc(=S)sc1C(=O)N(C)c1ccccc1	> 100	82.5		> 100	> 100		> 100	> 100	> 100	> 100	> 100	> 100			
COc1c(Br)cc(/C=C(\C#N)c2cccnc2)cc1Br	> 100	> 100	75	> 100	> 100		> 100	> 100	> 100	> 100	> 100	> 100	> 100	> 100	
CC(=O)N1C(NN(C)C)CCN1c1ccccc1 (configuration not stated)		> 10	> 10	> 10	> 10			> 10		> 10	> 10	> 10	> 10		
Cc1ccc(N(C(=O)Nc2ccc(F)c(Cl)c2)C2=NCC(C)S2)cc1 (configuration not stated)		> 100		> 100		> 100	> 100	> 100	> 100	41	> 100	73.2	32.6		> 100
Oc1cc(-c2ccc(Cl)cc2)cn2c1nc1ccccc12	> 100	> 100	> 100	> 100	> 100	> 100	> 100	> 100			> 100	> 100	> 100		> 100
C/C(=N\NC(=O)c1ccncc1)c1ccccc1F		> 10	> 10	> 10	> 10	> 10	> 10	> 10	> 10	> 10	> 10	> 10	> 10		
Cc1ccc2c(c1)CC1(Cc3c(C)cccc3C1=O)C2=O (configuration not stated)	> 100	89.7	> 100	> 100	> 100	> 100	> 100	> 100	> 100	> 100	> 100	> 100	> 100		87.4
CCCCCCCCCCCCCCCCOCC(CP(=O)([O-])OCC[n+]1ccccc1)OC (configuration not stated)	39.5	22.3	5.97	8.09		25.5	21.2	24.9		27.7	30	5.19			
NC(=O)C1Cc2cc3c(cc21)OCO3 (configuration not stated)	> 100	> 100		> 100	> 100		> 100	> 100	> 100	> 100	> 100		> 100	> 100	> 100
Cc1c2c(Cl)c3c(c(Cl)c2c(C)c2c(Cl)c4c(c(Cl)c12)C(c1ccccc1)(c1ccccc1)C4(c1ccccc1)c1ccccc1)C(c1ccccc1)(c1ccccc1)C3(c1ccccc1)c1ccccc1	> 100	> 100	> 100	> 100	> 100	> 100	> 100	> 100	> 100	> 100	> 100		> 100	> 100	
CC(C)C(Sc1nc(-c2ccccc2)c(-c2ccccc2)[nH]1)C(=O)NN (configuration not stated)	> 100	> 100	> 100	> 100	> 100	> 100	> 100	> 100	> 100	> 100	> 100	> 100			
COC(=O)NC12CC3CC(CC(F)(C3)C1)C2	> 100	> 100	> 100	> 100	> 100	> 100	> 100		> 100		> 100	> 100			
CN(C(=O)C1CCCCCC1=O)c1ccccc1Cl (configuration not stated)	> 100	> 100	> 100	> 100	> 100	> 100	> 100	> 100	> 100	> 100	> 100			> 100	
CN(N)/N=N/c1nc[nH]c1[N+](=O)[O-]	> 100	> 100		> 100	> 100	> 100	> 100	> 100	> 100	> 100	> 100	12.2		> 100	> 100
CC(=O)C(CN(Cc1ccccc1)Cc1ccccc1)C(c1ccccc1)c1c(O)c2ccccc2oc1=O (configuration not stated)	> 100	> 100	> 100	> 100	> 100	> 100	> 100	> 100	> 100	> 100	> 100	> 100			
COC(=O)C1(C(=O)OC)Cc2ccc(C)cc2C2=C1C(=O)c1ccccc1C2=O	32	32.2	38.7	> 100				48.9	31.7	28.6	34.6	> 100	35.7		> 100
Cc1ccc(N2CCC3(CC2)OCCO3)cc1	> 100	> 100	> 100	> 100	> 100	> 100	> 100	> 100	> 100	> 100	> 100	> 100		> 100	> 100
O=C(O)CCc1cccc2c1oc1c(CCC(=O)O)cccc12	> 100	> 100	> 100	> 100	> 100	> 100	> 100	> 100	> 100	> 100	> 100	> 100			
CCN(CC)c1c(-c2c(N(CC)CC)c(OC(C)=O)c3sccn3c2=O)c(=O)n2ccsc2c1OC(C)=O		39.3	> 100	> 100		> 100	> 100	> 100	> 100	> 100	> 100	> 100		> 100	> 100
N#CCCN(c1ccc(C=Nc2ccccc2Cl)cc1)S(=O)(=O)c1ccccc1	> 100	> 100	> 100	> 100	> 100	> 100	> 100	> 100	> 100	> 100	> 100	> 100			
NC(=S)N/N=C1/CCCC2CCCC[C@@H]12 (some centres not stated)	> 100	> 100	> 100	> 100	> 100	> 100	> 100	> 100	> 100	> 100	> 100	> 100	> 100		> 100
COc1ccc(N2C(=O)C3c4[nH]c5ccccc5c4C4CC(C)CC(C)C4C3C2=O)cc1 (configuration not stated)	> 100	> 100	> 100		> 100	> 100	> 100	> 100	> 100	> 100	> 100	> 100			

— PubChem BioAssay (NCI)
